Measured values: EPA's ToxRefDB 2

How the values were obtained:
rat [1] = conditions: Subchronic oral toxicity in rodents, sprague dawley, Gavage/Intubation, dose end: 90 day, group: systemic, systemic / clinical chemistry / calcium / calcium + systemic / clinical chemistry / cholesterol / cholesterol + systemic / clinical …
rat [2] = conditions: Fertility (Segment I); sprague dawley; Oral; Gavage/Intubation; dose end: 1 generation; group: parental; systemic / in life observation / body weight / body weight + systemic / in life observation / clinical signs / salivation + systemic / in …
rabbit [3] = conditions: Sub-acute repeat dose toxicity, new zealand white, Oral, Gavage/Intubation, dose end: 13 day
rat [4] = conditions: Sub-acute repeat dose toxicity; Oral; Gavage/Intubation; dose end: 19 day; group: systemic; systemic / in life observation / body weight / body weight + systemic / in life observation / clinical signs / salivation
rat [5] = conditions: Subchronic oral toxicity in rodents, sprague dawley, Feed, dose end: 92 day, group: systemic
rat [6] = conditions: Sub-acute repeat dose toxicity; Oral; Gavage/Intubation; dose end: 38 day; group: systemic; systemic / clinical chemistry / albumin / albumin + systemic / clinical chemistry / creatinine / creatinine + systemic / clinical chemistry…
mouse [7] = conditions: Sub-acute repeat dose toxicity, Oral, Feed, dose end: 15 day, group: systemic
rat [8] = conditions: Prenatal developmental toxicity study, sprague dawley, Oral, Gavage/Intubation, dose end: 18 GD
rat [9] = conditions: Sub-acute repeat dose toxicity, sprague dawley, Oral, Feed, dose end: 15 day, group: systemic
rabbit [10] = conditions: Sub-acute repeat dose toxicity; new zealand white; Oral; Gavage/Intubation; dose end: 5 day; group: systemic; systemic / in life observation / food consumption / food consumption
rat [11] = conditions: Fertility (Segment I); sprague dawley; Oral; Gavage/Intubation; dose end: 1 generation; group: parental; systemic / in life observation / body weight / body weight + systemic / in life observation / clinical signs / salivation + systemic / in …; remark: listed apart in the source
mouse [12] = conditions: Subchronic oral toxicity in rodents, Feed, dose end: 92 day, group: systemic
rat [13] = conditions: Peri- and post-natal toxicity study (Segment III), Oral, Gavage/Intubation, dose end: 1 generation
rabbit [14] = conditions: Prenatal developmental toxicity study, new zealand white, Oral, Gavage/Intubation, dose end: 19 GD, group: maternal
dog [15] = conditions: Sub-acute repeat dose toxicity, beagle, Oral, Gavage/Intubation, dose end: 8 day, group: systemic
dog [16] = conditions: Subchronic oral toxicity in nonrodent, beagle, Gavage/Intubation, dose end: 98 day, group: systemic
rat [17] = conditions: Sub-acute repeat dose toxicity; Oral; Gavage/Intubation; dose end: 14 day; group: systemic; systemic / in life observation / body weight / body weight gain + systemic / in life observation / clinical signs / reduced activity + …
mouse [18] = conditions: Carcinogenicity, cd1, Oral, Feed, dose end: 19 month, group: systemic
rat [19] = conditions: Combined chronic toxicity/carcinogenicity; other; Oral; Feed; dose end: 102 week; group: systemic; systemic / pathology microscopic / kidney / degeneration + systemic / pathology microscopic / kidney / dilatation + systemic / pathology …
rat [20] = conditions: Subchronic oral toxicity in rodents, sprague dawley, Feed, dose end: 13 week, group: systemic, systemic / clinical chemistry / urea nitrogen / urea nitrogen + systemic / clinical chemistry / creatinine / creatinine + systemic / …
dog [21] = conditions: Subchronic oral toxicity in nonrodent, beagle, Feed, dose end: 90 day, group: systemic
rat [22] = conditions: Subchronic oral toxicity in rodents, sprague dawley, Feed, dose end: 90 day, group: systemic
dog [23] = conditions: Chronic toxicity, beagle, Oral, Feed, dose end: 52 week, group: systemic
[24] = group: maternal, reproductive / reproductive performance / aborted / aborted
[25] = group: systemic, systemic / in life observation / body weight / body weight gain + systemic / in life observation / food consumption / food consumption
[26] = group: systemic, systemic / in life observation / body weight / body weight gain + systemic / in life observation / food consumption / food consumption + …
[27] = systemic / in life observation / body weight / body weight
[28] = systemic / in life observation / body weight / body weight + systemic / in life observation / clinical signs / lacrimation or red-colored …
[29] = systemic / in life observation / body weight / body weight + systemic / in life observation / clinical signs / hunched posture + systemic / …
[30] = group: developmental, developmental / developmental malformation / bone / [other] + systemic / in life observation / body weight / fetal weight
[31] = group: maternal, systemic / in life observation / body weight / body weight + systemic / in life observation / clinical signs / salivation + systemic / in …
[32] = systemic / in life observation / body weight / body weight + systemic / in life observation / clinical signs / alopecia + systemic / in life…
[33] = systemic / clinical chemistry / cholesterol / cholesterol + systemic / in life observation / body weight / body weight + systemic / clinical…
[34] = systemic / hematology / lymphocyte / lymphocyte
[35] = group: developmental, developmental / developmental landmark / eye opening / eye opening
[36] = group: parental, systemic / in life observation / body weight / body weight + systemic / in life observation / body weight / body weight gain + systemic / in…
[37] = systemic / in life observation / food consumption / food consumption
[38] = systemic / in life observation / food consumption / food consumption + reproductive / reproductive performance / aborted / aborted + …
[39] = systemic / hematology / leukocyte (wbc) count differential / leukocyte (wbc) + systemic / in life observation / clinical signs / abnormal …
[40] = systemic / in life observation / clinical signs / abnormal feces + systemic / in life observation / clinical signs / salivation
[41] = systemic / in life observation / clinical signs / salivation
[42] = systemic / in life observation / clinical signs / salivation + systemic / in life observation / clinical signs / emesis
[43] = systemic / organ weight / ovary / absolute + systemic / organ weight / ovary / relative to body weight + systemic / organ weight / ovary / …
[44] = systemic / in life observation / body weight / body weight gain + systemic / clinical chemistry / alkaline phosphatase (alp/alk) / alkaline …

CS(=O)(=O)O.Cc1nccn1-c1ccc(Sc2cccc(C3(C(N)=O)CCOCC3)c2)cc1
LEL (rat [1]): 20 mg/kg/day
LOAEL (rat [1]): > 150 mg/kg/day
NEL (rat [1]): 5 mg/kg/day
NOAEL (rat [1]): ≥ 150 mg/kg/day
LEL (rat [2]): 50 mg/kg/day
LOAEL (rat [2]): > 50 mg/kg/day
NEL (rat [2]): 15 mg/kg/day
NOAEL (rat [2]): ≥ 50 mg/kg/day
LEL (rabbit [3]; [24]): 50 mg/kg/day
LOAEL (rabbit [3]; [24]): > 200 mg/kg/day
NEL (rabbit [3]; [24]): 10 mg/kg/day
NOAEL (rabbit [3]; [24]): ≥ 200 mg/kg/day
LEL (rabbit [3]; [25]): 10 mg/kg/day
NEL (rabbit [3]; [25]): < 10 mg/kg/day
LOAEL (rabbit [3]; [26]): > 200 mg/kg/day
NOAEL (rabbit [3]; [26]): ≥ 200 mg/kg/day
LEL (rat [4]): 100 mg/kg/day
LOAEL (rat [4]): > 100 mg/kg/day
NEL (rat [4]): < 100 mg/kg/day
NOAEL (rat [4]): ≥ 100 mg/kg/day
LEL (rat [5]; [27]): 10 mg/kg/day
NEL (rat [5]; [27]): < 10 mg/kg/day
LOAEL (rat [5]; [28]): > 100 mg/kg/day
NOAEL (rat [5]; [28]): ≥ 100 mg/kg/day
LEL (rat [6]): 250 mg/kg/day
LOAEL (rat [6]): > 250 mg/kg/day
NEL (rat [6]): < 250 mg/kg/day
NOAEL (rat [6]): ≥ 250 mg/kg/day
LOAEL (mouse [7]; [29]): > 1200 mg/kg/day
NOAEL (mouse [7]; [29]): ≥ 1200 mg/kg/day
LEL (mouse [7]; systemic / in life observation / body weight / body weight + systemic / in life observation / food consumption / food consumption + systemic…): 600 mg/kg/day
LEL (rat [8]; [30]): 50 mg/kg/day
LOAEL (rat [8]; [30]): > 50 mg/kg/day
NOAEL (rat [8]; [30]): ≥ 50 mg/kg/day
LOAEL (rat [8]; [31]): > 50 mg/kg/day
NEL (rat [8]; [31]): 5 mg/kg/day
NOAEL (rat [8]; [31]): ≥ 50 mg/kg/day
LEL (rat [8]; group: maternal, systemic / in life observation / body weight / body weight + systemic / in life observation / food consumption / food consumption): 15 mg/kg/day
LOAEL (rat [9]; [32]): > 600 mg/kg/day
NEL (rat [9]; [32]): 30 mg/kg/day
NOAEL (rat [9]; [32]): ≥ 600 mg/kg/day
LEL (rat [9]; systemic / in life observation / body weight / body weight + systemic / in life observation / food consumption / food consumption): 100 mg/kg/day
LEL (rabbit [10]): 10 mg/kg/day
LOAEL (rabbit [10]): > 100 mg/kg/day
NEL (rabbit [10]): < 10 mg/kg/day
NOAEL (rabbit [10]): ≥ 100 mg/kg/day
LEL (rat [11]): 50 mg/kg/day
LOAEL (rat [11]): > 50 mg/kg/day
NEL (rat [11]): 15 mg/kg/day
NOAEL (rat [11]): ≥ 50 mg/kg/day
LOAEL (mouse [12]; [33]): > 600 mg/kg/day
NOAEL (mouse [12]; [33]): ≥ 600 mg/kg/day
LEL (mouse [12]; [34]): 30 mg/kg/day
NEL (mouse [12]; [34]): < 30 mg/kg/day
LEL (rat [13]; [35]): 50 mg/kg/day
LOAEL (rat [13]; [35]): > 50 mg/kg/day
NOAEL (rat [13]; [35]): ≥ 50 mg/kg/day
LEL (rat [13]; [36]): 15 mg/kg/day
LOAEL (rat [13]; [36]): > 50 mg/kg/day
NEL (rat [13]; [36]): 5 mg/kg/day
NOAEL (rat [13]; [36]): ≥ 50 mg/kg/day
LEL (rabbit [14]; [37]): 2 mg/kg/day
NEL (rabbit [14]; [37]): < 2 mg/kg/day
LOAEL (rabbit [14]; [38]): > 25 mg/kg/day
NOAEL (rabbit [14]; [38]): ≥ 25 mg/kg/day
LOAEL (dog [15]; [39]): > 60 mg/kg/day
NOAEL (dog [15]; [39]): ≥ 60 mg/kg/day
LEL (dog [15]; [40]): 3 mg/kg/day
NEL (dog [15]; [40]): < 3 mg/kg/day
LEL (dog [16]; [41]): 3 mg/kg/day
NEL (dog [16]; [41]): < 3 mg/kg/day
LOAEL (dog [16]; [42]): > 30 mg/kg/day
NOAEL (dog [16]; [42]): ≥ 30 mg/kg/day
LEL (rat [17]): 200 mg/kg/day
LOAEL (rat [17]): > 200 mg/kg/day
NEL (rat [17]): < 200 mg/kg/day
NOAEL (rat [17]): ≥ 200 mg/kg/day

CC1=C(C(=O)Nc2ccccc2)SCCO1 [Carboxin]
LOAEL (mouse [18]; systemic / in life observation / mortality / mortality): 451 mg/kg/day
NOAEL (mouse [18]; systemic / in life observation / mortality / mortality + systemic / pathology microscopic / liver / hypertrophy): 9 mg/kg/day
LEL (mouse [18]; systemic / pathology microscopic / liver / hypertrophy): 385 mg/kg/day
NEL (mouse [18]; systemic / pathology microscopic / liver / hypertrophy + systemic / pathology microscopic / lung / adenoma): 8 mg/kg/day
LEL (rat [19]): 9 mg/kg/day
LOAEL (rat [19]): 9 mg/kg/day
NEL (rat [19]): 0.8 mg/kg/day
NOAEL (rat [19]): 0.8 mg/kg/day
LEL (rat [20]): 10 mg/kg/day
LOAEL (rat [20]): 10 mg/kg/day
NEL (rat [20]): < 10 mg/kg/day
NOAEL (rat [20]): < 10 mg/kg/day
LOAEL (dog [21]; [43]): 17.7 mg/kg/day
NEL (dog [21]; [43]): 5.9 mg/kg/day
NOAEL (dog [21]; [43]): 9 mg/kg/day
LEL (dog [21]; systemic / pathology microscopic / parathyroid gland / cyst + systemic / pathology microscopic / pituitary gland / cyst): 9 mg/kg/day
LOAEL (rat [22]; systemic / pathology microscopic / kidney / nephropathy): 10.5 mg/kg/day
NOAEL (rat [22]; systemic / pathology microscopic / kidney / nephropathy + systemic / in life observation / clinical signs / defecation): 5.5 mg/kg/day
LOAEL (dog [23]; systemic / in life observation / body weight / body weight gain): 15 mg/kg/day
NEL (dog [23]; [44]): 1.3 mg/kg/day
NOAEL (dog [23]; [44]): 1.3 mg/kg/day
LEL (dog [23]; systemic / in life observation / body weight / body weight gain + systemic / hematology / mean corpuscular (cell) volume (mcv) / mean …): 15 mg/kg/day
